Measurements reported in patent publication US20260297070A1, “CYCLIC [COMPOUND LEFT OUT] WRN INHIBITORS” (Nimbus Wadjet, Inc., priority 2023, published 2026).

Each compound was assayed against T1, human Werner helicase (WRN-BV08, Uniprot Q14191, amino acids 517-1235 with L1074F point mutation) (Homo sapiens, UniProt Q14191, L1074F) (assay: WRN (BV08) ADP-Glo Assay). Conditions: 0.15 nM WRN, 5 μM ATP, 0.1 nM DNA duplex, 15 min preincubation, 60 min at 25° C., pH 7.5, 1% DMSO; read-out: ADP-Glo_hWRN_IC50.
T1 construct: Uniprot Q14191, amino acids 517-1235 with L1074F point mutation; TEV-cleavable 8×His (C, cleaved yes); made in house; host or cells: Sf9 insect cells (baculovirus)
T1 sequence (Q14191 with tags, fused parts or gaps L1074F limits assumed): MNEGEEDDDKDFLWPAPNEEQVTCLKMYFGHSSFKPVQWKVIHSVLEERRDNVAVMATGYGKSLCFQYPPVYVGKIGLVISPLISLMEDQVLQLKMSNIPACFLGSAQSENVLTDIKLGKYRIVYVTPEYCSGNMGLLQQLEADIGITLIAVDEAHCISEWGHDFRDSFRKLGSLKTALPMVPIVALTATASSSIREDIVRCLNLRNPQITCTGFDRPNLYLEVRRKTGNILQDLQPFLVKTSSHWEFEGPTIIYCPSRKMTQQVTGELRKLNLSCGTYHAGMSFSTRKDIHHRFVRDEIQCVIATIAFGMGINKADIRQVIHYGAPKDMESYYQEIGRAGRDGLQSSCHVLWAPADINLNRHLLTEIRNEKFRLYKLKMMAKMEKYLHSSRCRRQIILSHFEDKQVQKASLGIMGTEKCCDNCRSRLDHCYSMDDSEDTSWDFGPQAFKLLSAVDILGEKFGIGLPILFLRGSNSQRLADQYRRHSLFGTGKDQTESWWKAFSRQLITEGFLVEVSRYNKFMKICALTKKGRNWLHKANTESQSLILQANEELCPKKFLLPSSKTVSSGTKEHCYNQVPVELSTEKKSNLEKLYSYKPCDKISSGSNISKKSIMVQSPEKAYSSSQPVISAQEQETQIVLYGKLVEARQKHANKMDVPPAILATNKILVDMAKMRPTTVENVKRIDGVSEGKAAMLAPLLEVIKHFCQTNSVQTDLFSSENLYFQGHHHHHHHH
Type: biochemical
Description: Example 2: WRN (BV08) ADP-Glo Assay Protocol
Bovine skin gelatin (BSG), dimethyl sulfoxide (DMSO), Pluronic F-127 and Tris(2-carboxyethyl)phosphine hydrochloride solution (TCEP) were purchased from Sigma-Aldrich at the highest level of purity possible. Bicine buffer solution was purchased from Alfa Aesar and compound NSC-617145 was purchased from Tocris. DNA duplex was synthesized at BGI (Shenzhen, China) and was composed of strand 1 with the sequence 5′-[…]-3′ (SEQ ID NO.: 1) and strand 2 with the sequence 5′-[…]-3′ (SEQ ID NO.: 2). DNA strands were annealed by heating to 95° C. for 5 minutes followed by slow cooling to room temperature. Compounds in 100% DMSO (0.1 μl) were spotted into a 384-well white polystyrene Optiplate-384 (Perkin Elmer) assay plate using a LabCyte Echo 550 (Agilent). DMSO (0.1 μl) was added to columns 12, rows A-H and column 24, rows I-P for the maximum signal control. Compound NSC-617145 (0.1 μl) was added to columns 12, rows I-P and 24, rows A-H for the minimum signal control (100% inhibition). Compounds/DMSO were preincubated for 15 minutes at 25° C. with 5 uL 2×WRN (BV08), prepared as described below, in assay buffer containing 20 mM Bicine (pH=7.5), 1 mM MgCl2, 10 mM KCl, 0.1% Pluronic F-127, 0.005% BSG, 1 mM TCEP. The reaction was initiated by the addition of 5 μl 2× substrate mixture in assay buffer and incubated for 60 minutes at 25° C. The final concentrations of the assay components were 0.15 nM WRN, 5 μM ATP, and 0.1 nM DNA duplex. The final DMSO concentration was 1% and the reference compound concentration (NSC-617145) used for the minimal signal control was 20 μM. The reaction was stopped by the addition of the ADP-Glo Kit components (Promega) as directed and the relative luminescence units (RLU) were read on an Envision 2104 (Perkin Elmer).
% Inhibition Calculation:
Where RLU=relative luminescence units, sample=signal in sample well, and MIN and MAX are the respective minimum and maximum signal controls.
Four-Parameter IC50 Fit Equation:
Where top and bottom are normally allowed to float but may be fixed at 100 or 0 respectively in a 3-parameter fit. Y is the % inhibition and X is the compound concentration.
Molecular Biology and virus production. The DNA encoding human Werner helicase (Uniprot Q14191, amino acids 517-1235 with L1074F point mutation) was generated with codon-optimization for E. coli expression and subcloned into the pFastBac vector with a TEV cleavable 8×His tag (WRN-BV08). The baculovirus from the expression plasmid WRN-BV08 was generated from transfection and amplification following the manufacturer's instructions.
Sf9 cells grown in SF900II media were infected with 1:200 WRN-BV08 P2 virus and incubated for protein expression for 72 h at 27° C. The WRN protein was purified using the following protocol. The cell pellets were thawed and resuspended in buffer A (50 mM Tris, pH 7.5, 500 mM NaCl, 1 mM TCEP, 10% Glycerol) supplemented with 0.5% CHAPS, 1 mM [COMPOUND LEFT OUT], 1 μg/mL Leupeptin, 1 μg/mL Pepstatin, and the Pierce Universal Nuclease and cocktail tablet. Cleared lysates were loaded onto a Ni Sepharose™ excel column and washed with buffer A and bound protein was eluted with buffer A supplemented with 300 mM imidazole. The eluted protein was dialyzed against buffer A and digested by His-tagged TEV (1:5 ratio) overnight at 4° C. ZnCl2 was added into the sample at final 15 μM before loading onto a second Ni Sepharose™ excel column. Untagged WRN protein was eluted from the column with buffer A supplemented with 20 mM imidazole, dialyzed overnight into buffer B (50 mM Tris, pH 7.5, 1 mM TCEP, 10% Glycerol) supplemented with 150 mM NaCl and loaded onto a Heparin column. Proteins were eluted with a step gradient of buffer B supplemented with 150 mM, 200 mM, 300 mM and 500 mM NaCl. […]
Work on `CN(C)C(=O)C(C(=O)N(Cc1ccnc(C(C)(C)O)c1)C1C=CS(=O)(=O)C1)c1ccc(-c2ccc(F)cc2)cc1` (single isomer, unassigned) [I-271, (2R**)-N-[(3R*)-1,1-dioxo-2,3-dihydro-1lambda6-thiophen-3-yl]-2-{4′-fluoro-[1,1′-biphenyl]-4-yl}-N-{[2-(2-hydroxypropan-2-yl)pyridin-4-yl]methyl}-N′,N′-dimethylpropanediamide] yielded an IC50 of 5 to 10 µM.
`O=C(Cn1cc(-c2ccccc2)cn1)N(Cc1ccncc1)C1C=CS(=O)(=O)C1` (single isomer, unassigned) [I-281] showed an IC50 of 10 to 50 µM.
In the case of `CC(=O)N(C)C(C(=O)N(Cc1ccncc1)C1C=CS(=O)(=O)C1)c1ccc(-c2ccc(F)cc2)cc1` (single isomer, unassigned) [I-282], the IC50 is reported as 10 to 50 µM.
With `CN(C)C(=O)C(C(=O)N(Cc1ccnc(C(C)(C)O)c1)C1C=CS(=O)(=O)C1)c1ccc(-c2ccc(F)cc2)cc1` (single isomer, unassigned) [I-309, (2R**)-N-[(3R*)-1,1-dioxo-2,3-dihydro-1lambda6-thiophen-3-yl]-2-{4′-fluoro-[1,1′-biphenyl]-4-yl}-N-{[2-(2-hydroxypropan-2-yl)pyridin-4-yl]methyl}-N′,N′-dimethylpropanediamide] the IC50 was 10 to 50 µM.
`COc1cc(CN(C(=O)C(C(=O)N(C)C)c2ccc(-c3ccc(F)cc3)cc2F)C2C=CS(=O)(=O)C2)ccn1` (single isomer, unassigned) [I-312, (2R**)-2-{3,4′-difluoro-[1,1′-biphenyl]-4-yl}-N-[(3R*)-1,1-dioxo-2,3-dihydro-1lambda6-thiophen-3-yl]-N-[(2-methoxypyridin-4-yl)methyl]-N′,N′-dimethylpropanediamide] gave an IC50 of over 50 µM.
Compound `COc1cc(CN(C(=O)Cc2ccc(-n3cccc3C)cc2F)C2C=CS(=O)(=O)C2)ccn1` (single isomer, unassigned) [I-329] has an IC50 of 10 to 50 µM.
In the case of `COC(C(=O)N(Cc1ccncc1)C1C=CS(=O)(=O)C1)c1ccc(-c2ccc(F)cc2)cc1` (single isomer, unassigned) [I-330, (2R*)-N-[(3R**)-1,1-dioxo-2,3-dihydro-1lambda6-thiophen-3-yl]-2-{4′-fluoro-[1,1′-biphenyl]-4-yl}-2-methoxy-N-[(pyridin-4-yl)methyl]acetamide], the IC50 is reported as 10 to 50 µM.
Work on `CC(C)(O)c1cc(CN(C(=O)Cc2ccc(-c3ccc(F)c(F)c3)cc2F)C2C=CS(=O)(=O)C2)ccn1` (single isomer, unassigned) [I-332] yielded an IC50 of 10 to 50 µM.
With `O=C(Cc1ccc(S(F)(F)(F)(F)F)cc1)N(Cc1ccncc1)C1C=CS(=O)(=O)C1` (single isomer, unassigned) [I-336] the IC50 was 10 to 50 µM.
With `CN(C)C(=O)C(C(=O)N(Cc1ccnc(C(C)(C)O)c1)C1C=CS(=O)(=O)C1)c1ccc(-c2ccc(F)cc2)cc1F` (single isomer, unassigned) [I-340, (2R**)-2-{3,4′-difluoro-[1,1′-biphenyl]-4-yl}-N-[(3R*)-1,1-dioxo-2,3-dihydro-1lambda6-thiophen-3-yl]-N-{[2-(2-hydroxypropan-2-yl)pyridin-4-yl]methyl}-N′,N′-dimethylpropanediamide] the IC50 was 10 to 50 µM.
With `COc1cc(CN(C(=O)Cc2ccc(-c3ccc(F)cc3O)nc2)C2C=CS(=O)(=O)C2)ccn1` (single isomer, unassigned) [I-353] the IC50 was 10 to 50 µM.
In the case of `CN(C)C(=O)C(C(=O)N(Cc1ccncc1)C1C=CS(=O)(=O)C1)c1ccc(-c2ccc(F)cc2)cc1` (single isomer, unassigned) [I-362, (2R**)-N′-[(3R*)-1,1-dioxo-2,3-dihydro-1lambda6-thiophen-3-yl]-2-{4′-fluoro-[1,1′-biphenyl]-4-yl}-N,N-dimethyl-N′-[(pyridin-4-yl)methyl]propanediamide], the IC50 is reported as over 50 µM.
`COc1cc(CN(C(=O)C(OC)c2ccc(-c3ccc(F)cc3)cc2F)C2C=CS(=O)(=O)C2)ccn1` (single isomer, unassigned) [I-366, (2R*)-2-{3,4′-difluoro-[1,1′-biphenyl]-4-yl}-N-[(3R**)-1,1-dioxo-2,3-dihydro-1lambda6-thiophen-3-yl]-2-methoxy-N-[(2-methoxypyridin-4-yl)methyl]acetamide] gave an IC50 of over 50 µM.
Compound `CN(C)C(=O)C(C(=O)N(Cc1ccncc1)C1C=CS(=O)(=O)C1)c1ccc(-c2ccc(F)cc2)cc1` (single isomer, unassigned) [I-374, (2R**)-N′-[(3R*)-1,1-dioxo-2,3-dihydro-1lambda6-thiophen-3-yl]-2-{4′-fluoro-[1,1′-biphenyl]-4-yl}-N,N-dimethyl-N′-[(pyridin-4-yl)methyl]propanediamide] has an IC50 of over 50 µM.
For `CN(C)C(=O)C(C(=O)N(Cc1ccncc1)C1C=CS(=O)(=O)C1)c1ccc(-c2ccc(F)cc2)cc1` (single isomer, unassigned) [I-375, (2R**)-N′-[(3R*)-1,1-dioxo-2,3-dihydro-1lambda6-thiophen-3-yl]-2-{4′-fluoro-[1,1′-biphenyl]-4-yl}-N,N-dimethyl-N′-[(pyridin-4-yl)methyl]propanediamide], the IC50 was over 50 µM.
For `CC(=O)N(C)C(C(=O)N(Cc1ccncc1)C1C=CS(=O)(=O)C1)c1ccc(-c2ccc(F)cc2)cc1` (single isomer, unassigned) [I-378], the IC50 was over 50 µM.
`COc1cc(CN(C(=O)Cc2ccc(C(F)(F)F)cc2)C2C=CS(=O)(=O)C2)ccn1` (single isomer, unassigned) [I-382] was tested, and the IC50 was over 50 µM.
`COc1cc(CN(C(=O)Cc2ccc(-c3ccc(F)c(F)c3)cc2F)C2C=CS(=O)(=O)C2)ccn1` (single isomer, unassigned) [I-400] was tested, and the IC50 was over 50 µM.
Work on `COc1cc(CN(C(=O)C(OC)c2ccc(-c3ccc(F)cc3)cc2F)C2C=CS(=O)(=O)C2)ccn1` (single isomer, unassigned) [I-404, (2R*)-2-{3,4′-difluoro-[1,1′-biphenyl]-4-yl}-N-[(3R**)-1,1-dioxo-2,3-dihydro-1lambda6-thiophen-3-yl]-2-methoxy-N-[(2-methoxypyridin-4-yl)methyl]acetamide] yielded an IC50 of over 50 µM.
For `COc1cc(CN(C(=O)C(OC)c2ccc(-c3ccc(F)cc3)cc2F)C2C=CS(=O)(=O)C2)ccn1` (single isomer, unassigned) [I-405, (2R*)-2-{3,4′-difluoro-[1,1′-biphenyl]-4-yl}-N-[(3R**)-1,1-dioxo-2,3-dihydro-1lambda6-thiophen-3-yl]-2-methoxy-N-[(2-methoxypyridin-4-yl)methyl]acetamide], the IC50 was over 50 µM.
`CC(C)(O)c1cc(CN(C(=O)Cc2ccc(-n3cccc3)cc2F)C2C=CS(=O)(=O)C2)ccn1` (single isomer, unassigned) [I-469] gave an IC50 of over 50 µM.
`COC(C(=O)N(Cc1ccncc1)C1C=CS(=O)(=O)C1)c1ccc(-c2ccc(F)cc2)cc1` (single isomer, unassigned) [I-476, (2R*)-N-[(3R**)-1,1-dioxo-2,3-dihydro-1lambda6-thiophen-3-yl]-2-{4′-fluoro-[1,1′-biphenyl]-4-yl}-2-methoxy-N-[(pyridin-4-yl)methyl]acetamide] was tested, and the IC50 was over 50 µM.
In the case of `O=C(Cc1ccc(-n2cccc2)cc1)N(Cc1ccccc1)C1C=CS(=O)(=O)C1` (single isomer, unassigned) [I-488], the IC50 is reported as over 50 µM.
For `O=C(Cc1ccc(-n2cccc2)cc1)N(Cc1ccncc1)C1C=CS(=O)(=O)C1` (single isomer, unassigned) [I-490], the IC50 was over 50 µM.
Compound `O=C(Cc1ccc(-n2cccc2)cc1F)N(Cc1ccncc1)C1C=CS(=O)(=O)C1` (single isomer, unassigned) [I-520] has an IC50 of over 50 µM.
